# Test results: patent US11078515B2, “Methods for identifying targets for antimicrobial and antiproliferative compounds and compositions therefrom” (MIMETICS, LLC, priority 2015, dated 2021)
# “Also recorded” adds a separate entry of the source.
# Assays:
# Cryptococcus neoformans [1] = assay: Cell division / growth by cell counting in rich versus slow growth (PUD) medium; assay type: cell-based; details: 0, 50, 100 mM
# Procedure: Left panel: C. neoformans cells were grown in rich medium (YEP+2% (w/v) Dextrose) with 0 mM (black), 50 mM (gray), and 100 mM (dotted) concentrations of Validamycin A. Cells were counted each hour for 6 hours and relative growth per mL was assessed. Right panel: C. neoformans cells were grown for 24 hours in PUD media and then dosed with Validamycin A. Cells were grown in slow growth medium (PUD) with 0 mM (black), 50 mM (gray), and 100 mM (dotted) concentrations of Validamycin A for 7 days and then counted at time intervals shown. Media was changed every 24 hours to fresh media containing the indicated concentration of drug.
# (§1) Here, we determined whether a trehalose-mimetic compound (Validamycin A) produced by a Streptomyces bacterium, could target the trehalose pathway in S. cerevisiae and in C. neoformans, and inhibit their cell division in sub-optimal growth conditions.
# Cryptococcus neoformans [2] = assay: Plating assays (colony forming units) after exposure under slow growth conditions; assay type: cell-based
# Description: as §1
# Candida albicans = details: rich medium; reference [14]; cited from earlier work
compound,measurement,setting,value
OCC1=C[C@@H](N[C@H]2C[C@H](CO)[C@@H](O[C@H]3O[C@@H](CO)[C@H](O)[C@@H](O)[C@@H]3O)[C@H](O)[C@H]2O)[C@H](O)[C@@H](O)[C@@H]1O [Validamycin A],effect on division rates / growth,"Cryptococcus neoformans [1]; optimal growth conditions, rich medium (YEPD+2% (w/v) Dextrose), counted each hour for 6 hours",no effect; also recorded: not rich medium
same,effect on division rates / growth,"Cryptococcus neoformans [1]; slow growth conditions, PUD medium (PBS, 5 g/L Urea, 0.1% (w/v) dextrose; mimics cerebral spinal fluid), 7 days",severely inhibited; also recorded: inhibited in slow growth medium
same,colony forming units,Cryptococcus neoformans [2]; cells exposed under slow growth conditions (PUD medium),substantially reduced
same,fungicidal activity (plating assays),Cryptococcus neoformans [2]; slow growth conditions (PUD medium),fungicidal
same,efficacy as an antifungal agent against C. albicans,Candida albicans,not effective
